Reference: US11731966B2, “Compounds and their methods of use” (Praxis Precision Medicines, Inc., priority 2017, dated 2023)

Target: T1, human NaV1.6 (hNaV1.6) (Homo sapiens, UniProt Q9UQD0)
T1 construct: expressed in transfected cells; host or cells: HEK-293 (G418 selection)
Experiment: Modulation of late (persistent) sodium current (INaL), PatchXpress electrophysiology, HEK-293 cells expressing hNaV1.6, ATX-II evoked
Assay type: cell-based
Details: 1 μM compound, HEK-293 cells expressing recombinant human NaV1.6, late current evoked by 300 nM ATX-II, steady-state inhibition; for inhibition at 1 µM: HEK293
Protocol: Functional characterization of exemplary compounds to modulate INaL expressed by the NaV16 voltage-gated sodium channel was accomplished using the PatchXpress™ high throughput electrophysiology platform (Molecular Devices, Sunnyvale, Calif.). HEK-293 cells expressing recombinant, human NaV1.6 (hNaV1.6) were grown in DMEM/high-glucose Dulbecco's modified, 10% FBS, 2 mM sodium pyruvate, 10 mM HEPES and 400 μg/mL G418. Cells were grown to 50%-80% confluency prior to harvesting. Trypsinized cells were washed, allowed to recover for 1 hour and then resuspended in extracellular recording solution at a concentration of 1×10^6 cells/ml. The onboard liquid handling facility of the PatchXpress was used for dispensing cells and applying test compounds. NaV late currents were evoked by the application of 300 nM ATX-II. INaL was evoked by depolarizing pulses to 0 mV for 200 ms from a non-inactivating holding potential (e.g., −120 mV) at a frequency of 0.1 Hz. INaL amplitude and stability were determined by analyzing the mean current amplitude over the final 20 ms of the test pulse. Following steady state block with exemplary compounds (e.g., as described herein), a Na^+ free solution containing an impermeant cation (e.g., Choline or NDMG) was added to confirm the identify of the sodium current. Percent steady-state inhibition of INaL was calculated as: [(INaL_compound)/(INaL_control)]*100, where INaL_compound and INaL_control represent INaL recorded in the presence or absence of compound, respectively.
In this table, “A” indicates inhibition of less than 30%; “B” indicates inhibition of between about 30% to about 70%; and “C” indicates inhibition of greater than 70%.

T1 sequence (Q9UQD0 whole entry): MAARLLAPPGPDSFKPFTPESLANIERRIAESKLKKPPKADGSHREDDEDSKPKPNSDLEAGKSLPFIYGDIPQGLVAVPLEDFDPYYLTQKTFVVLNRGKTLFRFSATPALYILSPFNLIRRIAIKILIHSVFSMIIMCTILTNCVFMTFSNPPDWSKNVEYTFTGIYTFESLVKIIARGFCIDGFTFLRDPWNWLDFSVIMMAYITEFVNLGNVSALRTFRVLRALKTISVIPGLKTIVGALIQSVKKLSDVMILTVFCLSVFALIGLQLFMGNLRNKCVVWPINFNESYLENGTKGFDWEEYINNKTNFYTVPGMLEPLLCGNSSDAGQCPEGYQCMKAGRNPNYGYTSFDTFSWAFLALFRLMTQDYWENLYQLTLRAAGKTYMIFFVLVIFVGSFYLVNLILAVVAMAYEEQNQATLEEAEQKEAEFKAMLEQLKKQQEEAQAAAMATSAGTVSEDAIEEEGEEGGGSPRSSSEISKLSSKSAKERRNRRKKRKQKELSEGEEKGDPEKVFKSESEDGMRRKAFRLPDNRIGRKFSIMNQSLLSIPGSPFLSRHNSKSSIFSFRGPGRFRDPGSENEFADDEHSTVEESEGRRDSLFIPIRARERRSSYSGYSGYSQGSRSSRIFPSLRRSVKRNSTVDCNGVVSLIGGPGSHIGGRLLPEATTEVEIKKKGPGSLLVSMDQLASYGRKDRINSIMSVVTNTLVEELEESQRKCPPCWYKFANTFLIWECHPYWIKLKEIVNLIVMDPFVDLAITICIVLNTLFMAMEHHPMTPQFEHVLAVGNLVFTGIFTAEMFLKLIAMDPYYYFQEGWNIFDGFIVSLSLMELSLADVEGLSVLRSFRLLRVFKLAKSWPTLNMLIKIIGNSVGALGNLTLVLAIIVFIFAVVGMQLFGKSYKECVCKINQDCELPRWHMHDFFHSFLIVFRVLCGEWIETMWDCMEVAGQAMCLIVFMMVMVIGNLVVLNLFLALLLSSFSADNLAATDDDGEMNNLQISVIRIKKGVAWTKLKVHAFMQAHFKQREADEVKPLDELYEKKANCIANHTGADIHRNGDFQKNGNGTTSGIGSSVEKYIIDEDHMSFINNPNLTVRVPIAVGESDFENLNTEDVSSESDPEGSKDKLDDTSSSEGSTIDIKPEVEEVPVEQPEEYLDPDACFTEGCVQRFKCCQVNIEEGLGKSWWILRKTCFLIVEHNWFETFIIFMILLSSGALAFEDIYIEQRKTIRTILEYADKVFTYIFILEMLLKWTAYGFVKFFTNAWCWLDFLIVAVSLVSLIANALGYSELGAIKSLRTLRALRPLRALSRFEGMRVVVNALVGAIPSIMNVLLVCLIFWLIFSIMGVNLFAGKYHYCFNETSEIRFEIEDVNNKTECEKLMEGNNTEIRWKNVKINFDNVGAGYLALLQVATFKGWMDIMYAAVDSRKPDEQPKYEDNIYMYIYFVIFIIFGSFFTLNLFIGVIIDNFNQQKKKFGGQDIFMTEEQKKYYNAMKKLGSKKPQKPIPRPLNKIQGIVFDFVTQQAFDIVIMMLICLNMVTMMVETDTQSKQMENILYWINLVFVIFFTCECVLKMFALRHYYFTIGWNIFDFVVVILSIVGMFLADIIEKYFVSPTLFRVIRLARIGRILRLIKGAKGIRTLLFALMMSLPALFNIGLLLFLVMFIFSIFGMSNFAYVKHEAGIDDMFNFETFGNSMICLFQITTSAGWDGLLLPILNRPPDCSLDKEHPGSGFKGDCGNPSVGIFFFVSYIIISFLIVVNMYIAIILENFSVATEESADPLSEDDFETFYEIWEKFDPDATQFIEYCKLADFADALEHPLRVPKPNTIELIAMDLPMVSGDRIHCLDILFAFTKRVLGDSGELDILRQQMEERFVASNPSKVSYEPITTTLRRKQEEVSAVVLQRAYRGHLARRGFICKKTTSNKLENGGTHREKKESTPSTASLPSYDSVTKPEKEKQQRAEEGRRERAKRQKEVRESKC

Compound	inhibition at 1 µM	INaL hNaV1.6 (1 μM, % inhibition)
FC(F)(F)Cn1nnc2ccc(-c3ccc(OC(F)(F)F)cc3)nc21 [Compound 1]	30 to 70%	
FC(F)(F)Cn1nnc2ccc(-c3ccc(OC(F)(F)F)cc3)cc21 [Compound 2]	> 70%	
COCc1cc(OC(F)(F)F)ccc1-c1ccc2nnn(CC(F)(F)F)c2c1 [Compound 4]	30 to 70%	
N#CC1(c2ccc(-c3ccc4nnn(CC(F)(F)F)c4c3)cc2)CC1 [Compound 5]	< 30%	
CCn1nnc2ccc(-c3ccc(OC(F)(F)F)cc3)cc21 [Compound 6]	30 to 70%	
FC(F)(F)Oc1ccc(-c2ccc3nn[nH]c3c2)cc1 [Compound 7]	< 30%	
Cn1nnc2ccc(-c3ccc(OC(F)(F)F)cc3)cc21 [Compound 8]		B (inhibition of between about 30% to about 70%)
Cc1nnc(CCn2nnc3ccc(-c4ccc(OC(F)(F)F)cc4)nc32)o1 [Compound 9]	30 to 70%	
FC(F)(F)Cn1nnc2ccc(-c3ccc(OC4CC(F)(F)C4)nc3)cc21 [Compound 10]		A (inhibition of less than 30%)
COc1cc(OC(F)(F)F)ccc1-c1ccc2nnn(CC(F)(F)F)c2c1 [Compound 11]		A (inhibition of less than 30%)
FC(F)(F)COc1ccc(-c2ccc3nnn(CC(F)(F)F)c3c2)cn1 [Compound 12]		B (inhibition of between about 30% to about 70%)
FC(F)Cn1nnc2ccc(-c3ccc(OC(F)(F)F)cc3)cc21 [Compound 13]	< 30%	
FC(F)(F)Cn1nnc2ccc(-c3ccc(OC4CC(F)(F)C4)cc3)cc21 [Compound 14]		B (inhibition of between about 30% to about 70%)
Cc1nnc(CCn2nnc3ccc(-c4ccc(OC(F)(F)F)cc4)cc32)o1 [Compound 15]		B (inhibition of between about 30% to about 70%)
COCCn1nnc2ccc(-c3ccc(OC(F)(F)F)cc3)cc21 [Compound 16]	30 to 70%	
COc1cc(OC(F)(F)F)ccc1-c1ccc2nnn(CC(F)(F)F)c2n1 [Compound 17]		C (inhibition of greater than 70%)
COCc1cc(OC(F)(F)F)ccc1-c1ccc2nnn(CC(F)(F)F)c2n1 [Compound 18]		C (inhibition of greater than 70%)
FC(F)(F)Cn1nnc2cnc(-c3ccc(OC(F)(F)F)cc3)nc21 [Compound 19]	< 30%	
FC(F)(F)Cn1nnc2cnc(-c3ccc(OC(F)(F)F)cc3)cc21 [Compound 20]		A (inhibition of less than 30%)
FC(F)(F)Cn1nnc2ncc(-c3ccc(OC(F)(F)F)cc3)cc21 [Compound 21]	< 30%	
